Values quoted from earlier work in patent publication US20260240147A1, “MANCOZEB NANOSUSPENSION AND PREPARATION METHOD THEREOF” (priority 2022, published 2026).

Substance: manganese ethylene bis(dithiocarbamate) polymeric complex with zinc salt coordination compound [mancozeb]
- solubility in most organic solvents: insoluble
- solubility in water (pH 7.5, 25° C.): 6.2 µg/mL
